In ChEMBL document CHEMBL1137470, “Pyrrolidinones as potent functional antagonists of the human melanocortin-4 receptor” (Bioorg Med Chem Lett, 2007):

Columns and labels:
[1] = Volume of distribution in mouse at 5 mg/kg, iv; assay type: ADME, organism-based; design: dose 5 mg/kg, route intravenous; details: in vivo
[2] = Ratio of drug level in brain to plasma in mouse at 5 mg/kg, iv after 1 hr; assay type: ADME, organism-based; design: dose 5 mg/kg, route intravenous; details: read-out: BPR
[3] = Half life in mouse at 5 mg/kg, iv; assay type: ADME, organism-based; design: dose 5 mg/kg, route intravenous; details: in vivo
[4] = Drug level in mouse brain at 5 mg/kg, iv after 4 hrs; assay type: ADME, organism-based; design: dose 5 mg/kg, route intravenous; details: read-out: Drug uptake
[5] = AUC in mouse at 5 mg/kg, iv; assay type: ADME, organism-based; design: dose 5 mg/kg, route intravenous; details: plasma
[6] = Oral bioavailability in mouse at 10 mg/kg, po; assay type: ADME, organism-based; details: in vivo
[7] = Ratio of drug level in brain to plasma in rat at 5 mg/kg, iv after 1 hr; assay type: ADME, organism-based; design: dose 5 mg/kg, route intravenous; details: read-out: BPR
[8] = Permeability from basolateral to apical side of the Caco-2 cell membrane; assay type: ADME, cell-based; details: human, read-out: permeability
[9] = Tmax in mouse at 10 mg/kg, po; assay type: ADME, organism-based; design: dose 10 mg/kg, route oral; details: in vivo
[10] = Cmax in mouse at 10 mg/kg, po after 2 hrs; assay type: ADME, organism-based; design: dose 10 mg/kg, route oral; details: in vivo
[11] = Plasma clearance in mouse at 5 mg/kg, iv; assay type: ADME, organism-based; design: dose 5 mg/kg, route intravenous
[12] = Lipophilicity, log D by shake-flask method; assay type: physicochemical; details: octanol/water
[13] = Apparent permeability across Caco-2 cells; assay type: ADME, cell-based; details: human
[14] = AUC in mouse at 10 mg/kg, po; assay type: ADME, organism-based; design: dose 10 mg/kg, route oral; details: plasma
[15] = Drug level in rat brain at 5 mg/kg, iv after 1 hr; assay type: ADME, organism-based; design: dose 5 mg/kg, route intravenous; details: read-out: Drug uptake
[16] = Drug level in mouse brain at 5 mg/kg, iv after 1 hr; assay type: ADME, organism-based; design: dose 5 mg/kg, route intravenous; details: read-out: Drug uptake
[17] = Ratio of drug level in brain to plasma in mouse at 5 mg/kg, iv after 4 hrs; assay type: ADME, organism-based; design: dose 5 mg/kg, route intravenous; details: read-out: BPR

Vd [1] [L/kg]	Kp at 1 h [2]	half-life [3] [h]	concentration at 4 h [4] [ng/g]	AUC [5] [ng·h/mL]	bioavailability [6] [%]	Kp at 1 h [7]	Papp B→A [8] [×10⁻⁶ cm/s]	Tmax [9] [h]	Cmax [10] [ng/mL]	clearance [11] [mL/min/kg]	logD [12]	Papp [13] [×10⁻⁶ cm/s]	AUC [14] [ng·h/mL]	concentration at 1 h [15] [ng/g]	concentration at 1 h [16] [ng/g]	Kp at 4 h [17]	Compound
13	0.14	10	53	9980	19.5	0.47	6.7	2	552	15	1.8	2	1950	81	63	–	CC(C)C[C@H](NCCN)c1cccc(F)c1N1CCN(C(=O)[C@@H](Cc2ccc(Cl)cc2Cl)N2CCCC2=O)CC1
–	–	–	–	–	–	–	–	–	–	–	–	–	–	–	–	0.23	CC(C)C[C@H](NCCN)c1cc(F)ccc1N1CCN(C(=O)[C@@H](Cc2ccc(Cl)cc2Cl)N2CCCC2=O)CC1
